# Publication PMC11086599, “Cyanobacterial α-carboxysome carbonic anhydrase is allosterically regulated by the Rubisco substrate RuBP” (Science Advances, 2024)
# T1: CyCsoSCA (Cyanobium sp. PCC 7001, UniProt Z9Q2N2GQP4)
# T1 construct: first 116 residues (disordered N-terminal tail) removed; pHue His-ubiquitin fusion, tag cleaved with USP2; expressed in E. coli; homohexamer (trimer of dimers)
# T1 sequence (Z9Q2N2GQP4 117-583): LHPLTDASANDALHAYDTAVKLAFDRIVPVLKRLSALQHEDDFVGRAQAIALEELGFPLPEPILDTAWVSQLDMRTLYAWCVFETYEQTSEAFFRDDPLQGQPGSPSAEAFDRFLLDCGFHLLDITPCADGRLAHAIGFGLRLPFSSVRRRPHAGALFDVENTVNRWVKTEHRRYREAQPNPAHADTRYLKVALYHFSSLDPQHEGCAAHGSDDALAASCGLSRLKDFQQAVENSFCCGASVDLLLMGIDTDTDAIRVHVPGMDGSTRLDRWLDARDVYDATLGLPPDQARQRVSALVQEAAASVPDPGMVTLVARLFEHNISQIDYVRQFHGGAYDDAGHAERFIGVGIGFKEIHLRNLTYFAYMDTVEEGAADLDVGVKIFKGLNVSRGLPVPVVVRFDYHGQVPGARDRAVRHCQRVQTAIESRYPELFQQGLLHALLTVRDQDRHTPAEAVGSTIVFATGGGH
# T2: CyCsoSCA (Cyanobium sp. PCC 7001, UniProt Z9Q2N2GQP4, H472Q)
# T2 construct: first 116 residues (disordered N-terminal tail) removed; pHue His-ubiquitin fusion, tag cleaved with USP2; expressed in E. coli; homohexamer (trimer of dimers)
# T2 sequence (Z9Q2N2GQP4 117-583 H472Q): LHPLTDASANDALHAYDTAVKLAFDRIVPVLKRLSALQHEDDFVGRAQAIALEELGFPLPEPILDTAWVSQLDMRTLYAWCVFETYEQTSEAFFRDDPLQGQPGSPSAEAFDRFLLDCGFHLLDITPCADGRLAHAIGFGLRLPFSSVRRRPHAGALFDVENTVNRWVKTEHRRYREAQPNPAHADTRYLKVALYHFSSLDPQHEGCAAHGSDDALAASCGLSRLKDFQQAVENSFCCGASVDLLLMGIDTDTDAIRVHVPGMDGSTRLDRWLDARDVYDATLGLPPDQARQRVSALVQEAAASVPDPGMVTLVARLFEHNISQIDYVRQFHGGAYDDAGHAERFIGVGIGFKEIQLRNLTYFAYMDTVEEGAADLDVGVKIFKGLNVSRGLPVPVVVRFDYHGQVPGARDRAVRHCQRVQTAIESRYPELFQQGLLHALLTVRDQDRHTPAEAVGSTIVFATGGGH
# T3: CyCsoSCA (Cyanobium sp. PCC 7001, UniProt Z9Q2N2GQP4, K469D)
# T3 construct: first 116 residues (disordered N-terminal tail) removed; pHue His-ubiquitin fusion, tag cleaved with USP2; expressed in E. coli; homohexamer (trimer of dimers)
# T3 sequence (Z9Q2N2GQP4 117-583 K469D): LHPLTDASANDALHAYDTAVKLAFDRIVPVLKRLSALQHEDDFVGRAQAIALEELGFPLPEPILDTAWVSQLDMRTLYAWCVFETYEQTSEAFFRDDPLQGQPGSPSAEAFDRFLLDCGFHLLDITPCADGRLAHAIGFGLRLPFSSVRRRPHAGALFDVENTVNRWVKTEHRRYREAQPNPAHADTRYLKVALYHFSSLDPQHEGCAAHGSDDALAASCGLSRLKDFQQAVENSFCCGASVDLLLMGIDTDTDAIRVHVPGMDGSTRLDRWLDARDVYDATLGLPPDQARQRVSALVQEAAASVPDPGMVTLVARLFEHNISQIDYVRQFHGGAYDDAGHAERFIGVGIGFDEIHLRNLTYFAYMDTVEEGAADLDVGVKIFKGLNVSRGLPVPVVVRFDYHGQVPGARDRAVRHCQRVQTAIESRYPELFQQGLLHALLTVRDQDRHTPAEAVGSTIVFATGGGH
# T4: CyCsoSCA (Cyanobium sp. PCC 7001, UniProt Z9Q2N2GQP4, T477A)
# T4 construct: first 116 residues (disordered N-terminal tail) removed; pHue His-ubiquitin fusion, tag cleaved with USP2; expressed in E. coli; homohexamer (trimer of dimers)
# T4 sequence (Z9Q2N2GQP4 117-583 T477A): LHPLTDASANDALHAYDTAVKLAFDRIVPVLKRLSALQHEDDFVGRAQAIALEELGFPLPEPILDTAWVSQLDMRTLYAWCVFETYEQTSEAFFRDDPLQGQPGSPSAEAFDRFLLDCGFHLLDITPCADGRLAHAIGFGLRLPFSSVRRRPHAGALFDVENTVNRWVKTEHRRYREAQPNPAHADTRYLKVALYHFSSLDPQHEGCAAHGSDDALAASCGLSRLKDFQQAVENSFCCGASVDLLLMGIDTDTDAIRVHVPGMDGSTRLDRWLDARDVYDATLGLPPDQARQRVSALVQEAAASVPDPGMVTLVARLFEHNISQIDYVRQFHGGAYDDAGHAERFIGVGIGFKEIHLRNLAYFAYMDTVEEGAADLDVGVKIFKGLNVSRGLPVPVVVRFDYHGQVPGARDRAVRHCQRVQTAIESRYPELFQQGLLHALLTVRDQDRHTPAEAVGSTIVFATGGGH
# What was measured:
# HnCsoSCA = molecular target: T5, HnCsoSCA (Halothiobacillus neapolitanus, UniProt O85042); conditions: labelled compound; 2.7 mM NaH13C18O3, 50 mM EPPS-NaOH, 20 mM MgCl2, pH 7.8, DTNB; no RuBP needed
# T5 construct: gene csoS3
# CyCsoSCA [1] = molecular target: T1, CyCsoSCA; assay: membrane inlet mass spectrometry […]-exchange CA assay; Hill fit; format: biochemical; conditions: allosteric activator of bicarbonate dehydration/CO2 hydration; sigmoidal, Hill slope 2.214; 2.7 mM labelled bicarbonate, 50 mM EPPS-NaOH, 20 mM MgCl2, pH 7.8; site near dimer interface (R266, K469, R5)
# CyCsoSCA [2] = molecular target: T2, CyCsoSCA; assay: membrane inlet mass spectrometry […]-exchange CA assay; format: biochemical; conditions: 100 μM RuBP; allosteric activator; same buffer
# CyCsoSCA [3] = molecular target: T3, CyCsoSCA; assay: as above; format: biochemical; conditions: 100 μM RuBP; allosteric activator; same buffer
# CyCsoSCA [4] = molecular target: T4, CyCsoSCA; assay: as above; format: biochemical; conditions: 100 μM RuBP; allosteric activator; same buffer
# [5] = molecular target: Cyanobium sp. PCC7001 CsoSCA (α-carboxysome carbonic anhydrase), truncated form lacking the 116-residue disordered N-terminal region (Cyanobium sp. PCC7001); assay: SEC; size exclusion chromatography of the purified protein in solution (fig. S13); conditions of this run not told in the main text
# [6] = molecular target: Cyanobium sp. PCC7001 CsoSCA (α-carboxysome carbonic anhydrase), truncated form lacking the 116-residue disordered N-terminal region (Cyanobium sp. PCC7001); assay: crystal structure; CyCsoSCA co-crystallised with RuBP (RuBP:CyCsoSCA 10:1), 7 mg/ml protein, 0.2 M ammonium sulfate, 0.1 M bis-tris pH 6.5, 21% PEG 3350, 15% ethylene glycol; one hexamer in the asymmetric unit, P212121
# [7] = molecular target: the molecule itself; assay: SEC; size exclusion chromatography of the purified protein in solution (fig. S13); conditions of this run not told in the main text
molecule,measurement,setting,value
O=C(O)O [HCO3^−],membrane inlet mass spectrometry 18O-exchange CA assay,HnCsoSCA,HCO3^− dehydration activity was recorded using MIMS after the addition of CsoSCA variants
O=C(COP(=O)(O)O)[C@H](O)[C@H](O)COP(=O)(O)O [RuBP],EC50,CyCsoSCA [1],18 ± 2 µM
same,membrane inlet mass spectrometry 18O-exchange CA assay,CyCsoSCA [2],H472Q mutation (targeted approach) and T477A (random approach) also resulted in a biphasic activity profile
same,membrane inlet mass spectrometry 18O-exchange CA assay,CyCsoSCA [3],a minor increase in activity upon addition of the ligand
same,membrane inlet mass spectrometry 18O-exchange CA assay,CyCsoSCA [4],high levels of ligand-independent activity and a notable increase with RuBP
"Cyanobium sp. PCC7001 CsoSCA (α-carboxysome carbonic anhydrase), truncated form lacking the 116-residue disordered N-terminal region (enzyme)",stoichiometry N,[5],6
same,stoichiometry N,[6],6
"Halothiobacillus neapolitanus CsoSCA (α-carboxysome carbonic anhydrase), truncated form lacking the first 49 residues (enzyme, UniProt O85042 50-514, looked up, CsoSCA carbonic anhydrase of Halothiobacillus neapolitanus, O85042 with the first 49 residues (disordered N-terminal region) removed; codon-optimised for E. coli; also called HnCsoSCA; wild-type HnCsoSCA; source: E. coli NEB T7 Express pLysY, pHue plasmid, purified (HisTrap, USP2 cleavage, second HisTrap, SEC on Superdex 200)) RHPLTDLEANEQLGRCEDSVKNRFDRVIPFLQVVAGIPLGLDYVTRVQELAQSSLGHTLPEELLKDNWISGHNLKGIFGYATAKALTAATEQFSRKIMSEKDDSASAIGFFLDCGFHAVDISPCADGRLKGLLPYILRLPLTAFTYRKAYAGSMFDIEDDLAQWEKNELRRYREGVPNTADQPTRYLKIAVYHFSTSDPTHSGCAAHGSNDRAALEAALTQLMKFREAVENAHCCGASIDILLIGVDTDTDAIRVHIPDSKGFLNPYRYVDNTVTYAQTLHLAPDEARVIIHEAILNANRSDGWAKGNGVASEGMRRFIGQLLINNLSQIDYVVNRHGGRYPPNDIGHAERYISVGDGFDEVQIRNLAYYAHLDTVEENAIDVDVGIKIFTKLNLSRGLPIPIAIHYRYDPNVPGSRERTVVKARRIYNAIKERFSSLDEQNLLQFRLSVQAQDIGSPIEEVASA",stoichiometry N,[7],6
